The source of these data is US11618749B2, “Compounds and compositions for treating conditions associated with STING activity” (IFM Due, Inc., priority 2018, dated 2023).

The target in this experiment is T1, hSTING (Homo sapiens, UniProt Q86WV6, G230A/H232R/R293Q/R71H).
T1 construct: host or cells: THP1-Dual KO-IFNAR2 cells
T1 sequence (Q86WV6 whole entry R71H/G230A/H232R/R293Q): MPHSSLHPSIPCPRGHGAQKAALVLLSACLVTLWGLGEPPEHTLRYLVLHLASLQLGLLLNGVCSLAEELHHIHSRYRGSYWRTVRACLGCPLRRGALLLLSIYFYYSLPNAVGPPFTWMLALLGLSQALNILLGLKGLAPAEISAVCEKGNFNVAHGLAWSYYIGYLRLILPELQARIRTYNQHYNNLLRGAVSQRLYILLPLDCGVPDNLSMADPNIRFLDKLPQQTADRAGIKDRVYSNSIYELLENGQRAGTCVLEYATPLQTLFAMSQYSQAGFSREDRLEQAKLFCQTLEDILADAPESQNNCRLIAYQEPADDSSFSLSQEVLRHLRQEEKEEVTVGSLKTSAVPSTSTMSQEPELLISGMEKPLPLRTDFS
The experiment in a line: STING reporter assay (luciferase reporter) in THP1-Dual KO-IFNAR2 cells activated with 2′3′cGAMP. The experiment is classed as cell-based. To be noted: 15 μM 2′3′cGAMP, 24 h, luciferase reporter activity. The method, then:
STING pathway activation by the compounds described herein is measured using THP1-Dual™ cells (KO-IFNAR2).
THP1-Dual™ KO-IFNAR2 Cells (obtained from invivogen) are maintained in RPMI, 10% FCS, 5 ml P/S, 2 mM L-glut, 10 mM Hepes, and 1 mM sodium pyruvate. Compounds are spotted in empty 384 well tissue culture plates (Greiner 781182) by Echo for a final concentration of […]. Cells are plated into the TC plates at 40 μL per well, 2×10E6 cells/mL. For activation with STING ligand, 2′3′cGAMP (MW 718.38, obtained from Invivogen), is prepared in Optimem media.
The following solutions are prepared for each 1×384 plate: • Solution A: 2 mL Optimem with one of the following stimuli: • 60 uL of 10 mM 2′3′cGAMP→150 μM stock • Solution B: 2 mL Optimem with 60 μL Lipofectamine 2000→Incubate 5 min at RT
2 mL of solution A and 2 ml Solution B is mixed and incubated for 20 min at room temperature (RT). 20 uL of transfection solution (A+B) is added on top of the plated cells, with a final 2′3′cGAMP concentration of 15 μM. The plates are then centrifuged immediately at 340 g for 1 minute, after which they are incubated at 37° C., 5% CO2, >98% humidity for 24 h. Luciferase reporter activity is then measured. EC50 values were calculated by using standard methods known in the art.
Luciferase Reporter Assay:
10 μL of supernatant from the assay is transferred to white 384-plate with flat bottom and squared wells. one pouch of QUANTI-Luc™ Plus is dissolved in 25 mL of water. 100 μL of QLC Stabilizer per 25 mL of QUANTI-Luc™ Plus solution was added. 50 μL of QUANTI-Luc™ Plus/QLC solution per well is then added. Luminescence is measured on a Platereader (e.g., Spectramax I3X (Molecular Devices GF3637001)).
Luciferase reporter activity is then measured. EC50 values are calculated by using standard methods known in the art.
(A reporter such as luciferase makes a cellular process visible.)
In general, EC50 refers to the concentration that produces a half-maximal response. A lower EC50 goes with a more potent agent. The compound `O=C(Nc1ccc(C(F)(F)F)c(Cl)c1)Nc1c[nH]c2ncc(F)cc12` [Compound 282] displayed an EC50 of 200 to 1000 nM. The compound `O=C(Nc1ccc(C(F)(F)F)cc1)Nc1c[nH]c2ncc(Cl)cc12` [Compound 283] had a 50% effective concentration (EC50) of 40 to 200 nM. As to `O=C(Nc1cccc2c1CCCC2)Nc1c[nH]c2ncc(F)cc12` [Compound 284], the EC50 fell in the range of 1000 to 5000 nM. Compound `CCCCC1CCC(NC(=O)Nc2c[nH]c3ncccc23)C1` (stereo not drawn) [Compound 285] showed an EC50 of 1000 to 5000 nM. `Cc1nc2cc(NC(=O)Nc3c[nH]c4ncc(F)cc34)ccc2s1` [Compound 286] returned an EC50 of 1000 to 5000 nM. As to `O=C(Nc1ccc2ccncc2c1)Nc1c[nH]c2ncc(F)cc12` [Compound 287], the EC50 lay within 1000 to 5000 nM. `O=C(Nc1ccc2cnccc2c1)Nc1c[nH]c2ncc(F)cc12` [Compound 288] gave a 50% effective concentration (EC50) of 5000 to 100000 nM. Regarding `O=C(Nc1c[nH]c2ncccc12)N1CC(c2ccccc2)C1` [Compound 289], the concentration for a half-maximal effect (EC50) lay in the range of 5000 to 100000 nM. Consider `C#Cc1ccc(NC(=O)Nc2c[nH]c3ncc(F)cc23)cc1` [Compound 291], for which the concentration giving a half-maximal response (EC50) was in the range of 40 to 200 nM. As for `O=C(Nc1nc2ccccc2s1)Nc1c[nH]c2ncc(F)cc12` [Compound 292], the figure is 200 to 1000 nM; as for `O=C(Nc1ncc(-c2ccccc2)s1)Nc1c[nH]c2ncc(F)cc12` [Compound 293], 200 to 1000 nM; as for `CCCCC1CCN(C(=O)Nc2c[nH]c3ncc(F)cc23)CC1` [Compound 294], 5000 to 100000 nM.

Compound `O=C(Nc1cnc(-c2ccccc2)s1)Nc1c[nH]c2ncc(F)cc12` [Compound 295] came in with a concentration for a half-maximal effect (EC50) of 200 to 1000 nM. Regarding `O=C(Nc1ccc2c(c1)CCCC2)Nc1c[nH]c2ncc(F)cc12` [Compound 296], the concentration giving a half-maximal response (EC50) lay in the range of 40 to 200 nM.

In turn, `O=C(Nc1cccc(C(F)(F)F)c1)Nc1c[nH]c2ncc(F)cc12` [Compound 297] displayed an EC50 of 200 to 1000 nM.

For the compound `O=C(Nc1cc(F)cc(F)c1)Nc1c[nH]c2ncc(F)cc12` [Compound 298], the EC50 was 1000 to 5000 nM. The figure for `O=C(Nc1cc(F)cc(F)c1)Nc1c[nH]c2ncccc12` [Compound 299] is 5000 to 100000 nM; for `O=C(Nc1c[nH]c2ncc(F)cc12)NC1CCC2(CCCCC2)CC1` [Compound 300] it is 200 to 1000 nM; for `O=C(Nc1c[nH]c2ncccc12)N1CCCc2ccccc21` [Compound 301] it is 5000 to 100000 nM. In the case of `O=C(Nc1c[nH]c2ncccc12)NC1Cc2ccccc2C1` [Compound 302], the half-maximal effective concentration (EC50) fell in the range of 5000 to 100000 nM.

Regarding `O=C(Nc1c[nH]c2ncccc12)N1CCc2ccccc21` [Compound 303], the concentration giving a half-maximal response (EC50) lay within 5000 to 100000 nM.

`O=C(Nc1c[nH]c2ncccc12)NC1CCCC(c2ccccc2)C1` (stereo not drawn) [Compound 304] came in with an EC50 of 5000 to 100000 nM.

In the case of `O=C(Nc1c[nH]c2ncc(F)cc12)NC1CCC2(CC1)CC2` [Compound 305], the EC50 was in the range of 1000 to 5000 nM.

Consider `O=C(Nc1c[nH]c2ncccc12)N1CCc2ccccc2C1` [Compound 306], for which the EC50 lay within 5000 to 100000 nM. `O=C(Nc1c[nH]c2ncccc12)N1CCCC(c2ccccc2)C1` (stereo not drawn) [Compound 307] showed an EC50 of 5000 to 100000 nM.

For `O=C(Nc1ccc(C2CCCCC2)nc1)Nc1c[nH]c2cnccc12` [Compound 312], the concentration giving a half-maximal response (EC50) lay within 1000 to 5000 nM. Compound `O=C(Nc1ccc(C2CCCCC2)cn1)Nc1c[nH]c2cnccc12` [Compound 313] displayed an EC50 of 1000 to 5000 nM. `CCCCC1CCC(NC(=O)Nc2c[nH]c3cnccc23)CC1` (stereo not drawn) [Compound 314] had a concentration giving a half-maximal response (EC50) of 1000 to 5000 nM.

`O=C(Nc1ccc(C2CCCCC2)nc1)Nc1c[nH]c2ccncc12` [Compound 315] returned a 50% effective concentration (EC50) of 1000 to 5000 nM.

Turning to `O=C(Nc1ccc(C2CCCCC2)cn1)Nc1c[nH]c2ccncc12` [Compound 316], the concentration giving a half-maximal response (EC50) fell in the range of 200 to 1000 nM. `CCCCC1CCC(NC(=O)Nc2c[nH]c3ccncc23)CC1` (stereo not drawn) [Compound 317] yielded an EC50 of 200 to 1000 nM. Compound `O=C(Nc1ccc(C(F)(F)F)nc1)Nc1c[nH]c2ccncc12` [Compound 318] returned an EC50 of 5000 to 100000 nM. With `O=C(Nc1ccc(C(F)(F)F)cn1)Nc1c[nH]c2ccncc12` [Compound 319], the concentration giving a half-maximal response (EC50) is 1000 to 5000 nM.
